According to US20100298141A1, “SUBSTITUTED PYRIDINE N-OXIDE HERBICIDES” (E. I. DU PONT DE NEMOURS AND COMPANY, priority 2007, published 2010):

Key:
giant foxtail [1] = assay: Test A pre-/postemergence greenhouse test; type: in vivo, Setaria faberi; settings: for Plant response rating, Foxtail, Giant: 0 to 100 scale where 0 is no effect and 100 is complete control; for Foxtail, Giant plant response rating: 0 to 100 scale
Method in brief: (§1)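 Sowing in loam/sand; same-day pre (directed soil spray) and post (foliar, 1–2 leaf, 2–10 cm) treatment with surfactant-containing non-phytotoxic solvent formulation; ~10 days in greenhouse; eye-scored injury against untreated plants.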

velvetleaf = assay: Test A pre-/postemergence greenhouse test; type: in vivo, Abutilon theophrasti; settings: for Plant response rating, Velvetleaf: 0 to 100 scale where 0 is no effect and 100 is complete control; for Velvetleaf plant response rating: 0 to 100 scale
Method in brief: as §1

wheat = assay: Test A pre-/postemergence greenhouse test; type: in vivo, Triticum aestivum; settings: for Plant response rating, Wheat: 0 to 100 scale where 0 is no effect and 100 is complete control; for Wheat plant response rating: 0 to 100 scale
Method in brief: as §1

corn = assay: Test A pre-/postemergence greenhouse test; type: in vivo, Zea mays; settings: for Plant response rating, Corn: 0 to 100 scale where 0 is no effect and 100 is complete control; for Corn plant response rating: 0 to 100 scale
Method in brief: as §1

downy brome = assay: Test C pre-/postemergence test; type: in vivo, Bromus tectorum
Method in brief: (§2)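 Test chemicals were formulated with surfactant in a non-phytotoxic solvent and sprayed both on freshly planted seeds (preemergence) and on 1- to 4-leaf plants of 2–18 cm (postemergence). Flooded-paddy pots received compound directly into 3 cm of standing water, maintained for the test.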

catchweed bedstraw = assay: Test C pre-/postemergence test; type: in vivo, Galium aparine
Method in brief: as §2

bermudagrass = assay: Test C pre-/postemergence test; type: in vivo, Cynodon dactylon
Method in brief: as §2

Surinam grass = assay: Test C pre-/postemergence test; type: in vivo, Brachiaria decumbens
Method in brief: as §2

crabgrass = assay: Test C pre-/postemergence test; type: in vivo, Digitaria sanguinalis
Method in brief: as §2

giant foxtail [2] = assay: Test C pre-/postemergence test; type: in vivo, Setaria faberii
Method in brief: as §2

johnsongrass = assay: Test C pre-/postemergence test; type: in vivo, Sorghum halepense
Method in brief: as §2

lambsquarters = assay: Test C pre-/postemergence test; type: in vivo, Chenopodium album
Method in brief: as §2

morningglory = assay: Test C pre-/postemergence test; type: in vivo, Ipomoea coccinea
Method in brief: as §2

pigweed = assay: Test C pre-/postemergence test; type: in vivo, Amaranthus retroflexus
Method in brief: as §2

soybean = assay: Test C pre-/postemergence test; type: in vivo, Glycine max
Method in brief: as §2

rice = assay: Test C flooded paddy test; type: in vivo, Oryza sativa; settings: Flood
Method in brief: (§3)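 Flooded 3 cm over soil; compound into paddy water; depth kept constant. Greenhouse 13–15 d.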

barnyardgrass = assay: Test C flooded paddy test; type: in vivo, Echinochloa crus-galli; settings: Flood
Method in brief: as §3

[3] = Postemergence, 500 g ai/ha, 0 is no effect, 100 is complete control
[4] = Preemergence, 125 g ai/ha, 0 no effect, 100 complete control
[5] = 62 g ai/ha, Preemergence, scale 0 to 100
[6] = 125 g ai/ha, preemergence, scale 0 (no effect) to 100 (complete control)
[7] = Preemergence, 31 g ai/ha, scale 0 to 100 (0 no effect, 100 complete control)
[8] = preemergence, 250 g ai/ha, scale 0 (no effect) to 100 (complete control)
[9] = 62 g ai/ha, scale 0 to 100 (0 no effect, 100 complete control)
[10] = 250 g ai/ha, scale 0 to 100, 0 no effect, 100 complete control, 13 to 15 days

C#CCOc1c(C[S+]([O-])c2cccc[n+]2[O-])c(C(F)(F)F)nn1C (stereo not shown) [Compound 76]
Plant response rating, Foxtail, Giant (giant foxtail [1]; Postemergence, 125 g ai/ha): 80
Foxtail, Giant plant response rating (giant foxtail [1]; [3]): 90
Foxtail, Giant plant response rating (giant foxtail [1]; [4]): 90
Plant response rating, Foxtail, Giant (giant foxtail [1]; Preemergence, 500 g ai/ha): 100
Plant response rating, Velvetleaf (velvetleaf; Postemergence, 125 g ai/ha): 60
Velvetleaf plant response rating (velvetleaf; [3]): 80
Velvetleaf plant response rating (velvetleaf; [4]): 50
Plant response rating, Velvetleaf (velvetleaf; Preemergence, 500 g ai/ha): 80
Plant response rating, Wheat (wheat; Postemergence, 125 g ai/ha): 20
Wheat plant response rating (wheat; [3]): 60
Wheat plant response rating (wheat; [4]): 20
Plant response rating, Wheat (wheat; Preemergence, 500 g ai/ha): 100
Plant response rating, Corn (corn; Postemergence, 125 g ai/ha): 40
Corn plant response rating (corn; [3]): 60
Corn plant response rating (corn; [4]): 0
Plant response rating, Corn (corn; Preemergence, 500 g ai/ha): 80
Bromegrass, Downy plant response rating (downy brome; [5]): 45
Bromegrass, Downy plant response rating (downy brome; [6]): 60
Plant response rating, Bromegrass, Downy (downy brome; [7]): 0
Bromegrass, Downy plant response rating (downy brome; [8]): 85
Galium plant response rating (catchweed bedstraw; [5]): 100
Galium plant response rating (catchweed bedstraw; [6]): 100
Plant response rating, Galium (catchweed bedstraw; [7]): 100
Galium plant response rating (catchweed bedstraw; [8]): 100
Bermudagrass plant response rating (bermudagrass; 62 g ai/ha, Preemergence, scale 0 to 100 (0 no effect, 100 complete control)): 100
Bermudagrass plant response rating (bermudagrass; [6]): 100
Plant response rating, Bermudagrass (bermudagrass; [7]): 80
Bermudagrass plant response rating (bermudagrass; [8]): 100
Surinam Grass plant response rating (Surinam grass; [5]): 85
Surinam Grass plant response rating (Surinam grass; [6]): 85
Plant response rating, Surinam Grass (Surinam grass; [7]): 0
Surinam Grass plant response rating (Surinam grass; [8]): 100
Crabgrass, Large plant response rating (crabgrass; [5]): 85
Crabgrass, Large plant response rating (crabgrass; [6]): 98
Plant response rating, Crabgrass, Large (crabgrass; [7]): 85
Crabgrass, Large plant response rating (crabgrass; [8]): 100
Foxtail, Giant plant response rating (giant foxtail [2]; [5]): 90
Foxtail, Giant plant response rating (giant foxtail [2]; [6]): 100
Plant response rating, Foxtail, Giant (giant foxtail [2]; [7]): 75
Foxtail, Giant plant response rating (giant foxtail [2]; [8]): 100
Johnsongrass plant response rating (johnsongrass; [5]): 95
Johnsongrass plant response rating (johnsongrass; [6]): 100
Plant response rating, Johnsongrass (johnsongrass; [7]): 85
Johnsongrass plant response rating (johnsongrass; [8]): 100
Lambsquarters plant response rating (lambsquarters; [5]): 100
Lambsquarters plant response rating (lambsquarters; [6]): 100
Plant response rating, Lambsquarters (lambsquarters; [7]): 85
Lambsquarters plant response rating (lambsquarters; [8]): 100
Morningglory plant response rating (morningglory; [5]): 20
Morningglory plant response rating (morningglory; [6]): 100
Plant response rating, Morningglory (morningglory; [7]): 0
Morningglory plant response rating (morningglory; [8]): 100
Pigweed plant response rating (pigweed; [5]): 80
Pigweed plant response rating (pigweed; [6]): 80
Plant response rating, Pigweed (pigweed; [7]): 50
Pigweed plant response rating (pigweed; [8]): 100
Soybean plant response rating (soybean; [5]): 40
Soybean plant response rating (soybean; [6]): 80
Plant response rating, Soybean (soybean; [7]): 0
Soybean plant response rating (soybean; [8]): 95
Plant response rating, Rice (rice; [9]): 0
Plant response rating, Rice (rice; [10]): 30
Plant response rating, Barnyardgrass (barnyardgrass; [9]): 0
Plant response rating, Barnyardgrass (barnyardgrass; [10]): 20
